Values after ≈ are worked out from the molar mass of the structure shown.
Columns and labels:
JAK1 = JAK1 (Homo sapiens (Human), UniProt P23458); assay: Biochemical JAK and Tyk2 Kinase Assays (LanthaScreen), JAK1; conditions: 25 μM ATP (Km); pIC50 converted to pKi by Cheng-Prusoff
Experimental: (§1) Assay 1: Biochemical JAK and Tyk2 Kinase Assays
(§2) A panel of four LanthaScreen JAK biochemical assays (JAK1, 2, 3 and Tyk2) were carried in a common kinase reaction buffer (50 mM HEPES, pH 7.5, 0.01% Brij-35, 10 mM MgCl2, and 1 mM EGTA). Recombinant GST-tagged JAK enzymes and a GFP-tagged STAT1 peptide substrate were obtained from Life Technologies.
(§3) Serially or discretely diluted compounds were pre-incubated with each of the four JAK enzymes and the substrate in white 384-well microplates (Corning) at ambient temperature for 1 h. ATP was subsequently added to initiate the kinase reactions in 10 μL total volume, with 1% DMSO. The final enzyme concentrations for JAK1, 2, 3 and Tyk2 are 4.2 nM, 0.1 nM, 1 nM, and 0.25 nM respectively; the corresponding Km ATP concentrations used are 25 μM, 3 μM, 1.6 μM, and 10 μM; while the substrate concentration is 200 nM for all four assays. Kinase reactions were allowed to proceed for 1 hour at ambient temperature before a 10 μL preparation of EDTA (10 mM final concentration) and Tb-anti-pSTAT1 (pTyr701) antibody (Life Technologies, 2 nM final concentration) in TR-FRET dilution buffer (Life Technologies) was added. The plates were allowed to incubate at ambient temperature for 1 h before being read on the EnVision reader (Perkin Elmer). Emission ratio signals (520 nm/495 nm) were recorded and utilized to calculate the percent inhibition values based on DMSO and background controls.
(§4) For dose-response analysis, percent inhibition data were plotted vs. compound concentrations, and IC50 values were determined from a 4-parameter robust fit model with the Prism software (GraphPad Software). Results were expressed as pIC50 (negative logarithm of IC50) and subsequently converted to pKi (negative logarithm of dissociation constant, Ki) using the Cheng-Prusoff equation.

physchem = conditions: thermodynamic from solid
[1] = test system: IL-2 stimulated pSTAT5 in Tall-1 T cells; assay: Inhibition of IL-2 Stimulated pSTAT5 in Tall-1 T Cells; format: cell-based; conditions: Tall-1 human T cell line, IL-2 300 ng/mL, AlphaLisa; read-out: Tall-1 IL2 pSTAT5 (pIC50) (converted)
Experimental: Assay 2: Inhibition of IL-2 Stimulated pSTAT5 in Tall-1 T Cells
The potency of test compounds for inhibition of interleukin-2 (IL-2) stimulated STATS phosphorylation was measured in the Tall-1 human T cell line (DSMZ) using AlphaLisa. Because IL-2 signals through JAK1/3, this assay provides a measure of JAK1/3 cellular potency.
Phosphorylated STATS was measured via the AlphaLISA SureFire Ultra pSTAT5 (Tyr694/699) kit (PerkinElmer). Human T cells from the Tall-1 cell line were cultured in a 37° C., 5% CO2 humidified incubator in RPMI (Life Technologies) supplemented with 15% Heat Inactivated Fetal Bovine Serum (FBS, Life Technologies), 2 mM Glutamax (Life Technologies), 25 mM HEPES (Life Technologies) and 1× Pen/Strep (Life Technologies). Compounds were serially diluted in DMSO and dispensed acoustically to empty wells. Assay media (phenol red-free DMEM (Life Technologies) supplemented with 10% FBS (ATCC)) was dispensed (4 μL/well) and plates shaken at 900 rpm for 10 mins. Cells were seeded at 45,000 cells/well in assay media (4 μL/well), and incubated at 37° C., 5% CO2 for 1 hour, followed by the addition of IL-2 (R&D Systems; final concentration 300 ng/mL) in pre-warmed assay media (4 μL) for 30 minutes. After cytokine stimulation, cells were lysed with 6 ul of 3× AlphaLisa Lysis Buffer (PerkinElmer) containing 1× PhosStop and Complete tablets (Roche). The lysate was shaken at 900 rpm for 10 minutes at room temperature (RT). Phosphorylated STATS was measured via the pSTAT5 AlphaLisa kit (PerkinElmer). Freshly prepared acceptor bead mixture was dispensed onto lysate (51) under green filtered <100 lux light. Plates were shaken at 900 rpm for 2 mins, briefly spun down, and incubated for 2 hrs at RT in the dark. Donor beads were dispensed (5 μL) under green filtered <100 lux light. Plates were shaken at 900 rpm for 2 minutes, briefly spun down, and incubated overnight at RT in the dark. Luminescence was measured with excitation at 689 nm and emission at 570 nm using an EnVision plate r reader (PerkinElmer) under green filtered <100 lux light.
To determine the inhibitory potency of test compounds in response to IL-2, the average emission intensity of beads bound to pSTAT5 was measured in a human T cell line. IC50 values were determined from analysis of the inhibition curves of signal intensity versus compound concentration. Data are expressed as pIC50 (negative decadic logarithm IC50) values (mean±standard deviation).

JAK3 = JAK3 (Homo sapiens (Human), UniProt P52333); assay: Biochemical JAK and Tyk2 Kinase Assays (LanthaScreen), JAK3; conditions: 1.6 μM ATP (Km); pIC50 converted to pKi by Cheng-Prusoff; read-out: JAK 3 (pKi) (converted)
Experimental: as §1, §2, §3, §4

Caco-2 cell monolayer = assay: Caco-2 Permeation Assay; format: in vitro ADME; conditions: Papp, 5 μM compound
Experimental: Assay 3: Caco-2 Permeation Assay
The Caco 2 permeability assay was used as a surrogate for assessment of skin permeability. This assay measures the in vitro permeability across a monolayer of Caco-2 cells, which morphologically and functionally resemble the enterocytes of the small intestine.
CacoReady 24-well transwell plates were obtained from ADMEcell (Alameda, Calif.). The compounds were evaluated at a concentration of 5 μM from 10 mM DMSO stock solutions in duplicate (n=2). Transport in the apical to basal (A→B) direction was determined in Caco 2 cell monolayers. From these values the apparent permeability (Papp) was calculated. To inform on the potential of the compound to be a P-gp substrate, the transport of the compound across the Caco-2 cell monolayer was also determined in the presence of 25 μM of the known P-gp inhibitor verapamil (Yusa and Tsuruo et al., Cancer Research, vol. 49, no. 18, 1989, pp. 5002-06).
Caco-2 culture media consisted of standard filtered DMEM, FCS 10%, L-Glutamine 1%, and PenStrep 1%. The experiment was conducted at 37° C. and in a CO2 (5%) incubator. The basal assay plate was prepared by adding 750 pt of transport buffer to A→B wells. A CacoReady™ plate was prepared by removing the Caco-2 media from the apical wells and replacing with fresh transport media (200 pt repeated for a total of 3 washes). Blank media (200 μL) was then replaced with diluted compound. To begin the incubation, the basal plate was removed from the incubator and the apical section was added on top of it. Samples were collected from the apical and basal compartments for time zero (t0). Samples were collected again after 120 minutes (t120) from the apical and basal compartments. All samples were diluted and prepared for bioanalysis by LC-MS/MS. The permeability coefficients (Papp, mean A to B) and (Papp, mean A to B+Verapamil) in cm/sec were calculated as dQ (flux)/(dt×Area×concentration).
In this assay, a compound with a Papp value of more than about 12×10−6 cm/sec is considered to have high permeability.

[2] = oil or lipid, Solubility in MCT (mg/mL)
[3] = organic solvent or mixture, Solubility in Diisopropyl adipate (mg/mL)
[4] = organic solvent or mixture, Solubility in PEG400 (mg/mL)
[5] = organic solvent or mixture, Solubility in Propylene glycol (mg/mL)

Sequence of JAK1 (P23458 whole entry): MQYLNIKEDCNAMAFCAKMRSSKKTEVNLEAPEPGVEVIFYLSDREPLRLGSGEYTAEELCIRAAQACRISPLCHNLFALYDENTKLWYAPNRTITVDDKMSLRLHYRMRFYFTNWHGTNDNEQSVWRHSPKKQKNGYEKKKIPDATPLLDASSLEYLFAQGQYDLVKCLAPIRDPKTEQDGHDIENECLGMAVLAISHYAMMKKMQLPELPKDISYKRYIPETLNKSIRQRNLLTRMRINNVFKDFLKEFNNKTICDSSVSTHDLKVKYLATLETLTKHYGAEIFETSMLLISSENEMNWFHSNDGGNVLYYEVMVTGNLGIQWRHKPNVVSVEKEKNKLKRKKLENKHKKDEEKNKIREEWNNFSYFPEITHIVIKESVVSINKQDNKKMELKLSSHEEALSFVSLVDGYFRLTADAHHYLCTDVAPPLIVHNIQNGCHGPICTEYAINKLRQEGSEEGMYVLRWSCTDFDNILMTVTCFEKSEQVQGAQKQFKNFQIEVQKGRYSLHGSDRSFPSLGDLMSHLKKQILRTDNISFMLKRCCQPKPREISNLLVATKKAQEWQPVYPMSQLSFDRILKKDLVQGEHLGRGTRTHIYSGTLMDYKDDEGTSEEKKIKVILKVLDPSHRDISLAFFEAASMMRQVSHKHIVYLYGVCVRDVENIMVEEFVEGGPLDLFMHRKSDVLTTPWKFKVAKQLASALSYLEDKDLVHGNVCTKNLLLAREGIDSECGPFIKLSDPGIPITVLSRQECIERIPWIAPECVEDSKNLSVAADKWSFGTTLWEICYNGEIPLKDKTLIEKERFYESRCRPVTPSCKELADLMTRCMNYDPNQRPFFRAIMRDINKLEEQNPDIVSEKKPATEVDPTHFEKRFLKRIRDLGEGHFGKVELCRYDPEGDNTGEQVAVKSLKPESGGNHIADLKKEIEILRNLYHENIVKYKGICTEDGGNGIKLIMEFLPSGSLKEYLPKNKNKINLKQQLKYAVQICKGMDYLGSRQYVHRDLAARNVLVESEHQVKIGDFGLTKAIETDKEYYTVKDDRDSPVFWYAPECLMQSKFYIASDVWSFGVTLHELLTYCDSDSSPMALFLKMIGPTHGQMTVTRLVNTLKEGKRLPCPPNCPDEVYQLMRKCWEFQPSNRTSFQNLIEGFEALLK
Sequence of JAK3 (P52333 whole entry): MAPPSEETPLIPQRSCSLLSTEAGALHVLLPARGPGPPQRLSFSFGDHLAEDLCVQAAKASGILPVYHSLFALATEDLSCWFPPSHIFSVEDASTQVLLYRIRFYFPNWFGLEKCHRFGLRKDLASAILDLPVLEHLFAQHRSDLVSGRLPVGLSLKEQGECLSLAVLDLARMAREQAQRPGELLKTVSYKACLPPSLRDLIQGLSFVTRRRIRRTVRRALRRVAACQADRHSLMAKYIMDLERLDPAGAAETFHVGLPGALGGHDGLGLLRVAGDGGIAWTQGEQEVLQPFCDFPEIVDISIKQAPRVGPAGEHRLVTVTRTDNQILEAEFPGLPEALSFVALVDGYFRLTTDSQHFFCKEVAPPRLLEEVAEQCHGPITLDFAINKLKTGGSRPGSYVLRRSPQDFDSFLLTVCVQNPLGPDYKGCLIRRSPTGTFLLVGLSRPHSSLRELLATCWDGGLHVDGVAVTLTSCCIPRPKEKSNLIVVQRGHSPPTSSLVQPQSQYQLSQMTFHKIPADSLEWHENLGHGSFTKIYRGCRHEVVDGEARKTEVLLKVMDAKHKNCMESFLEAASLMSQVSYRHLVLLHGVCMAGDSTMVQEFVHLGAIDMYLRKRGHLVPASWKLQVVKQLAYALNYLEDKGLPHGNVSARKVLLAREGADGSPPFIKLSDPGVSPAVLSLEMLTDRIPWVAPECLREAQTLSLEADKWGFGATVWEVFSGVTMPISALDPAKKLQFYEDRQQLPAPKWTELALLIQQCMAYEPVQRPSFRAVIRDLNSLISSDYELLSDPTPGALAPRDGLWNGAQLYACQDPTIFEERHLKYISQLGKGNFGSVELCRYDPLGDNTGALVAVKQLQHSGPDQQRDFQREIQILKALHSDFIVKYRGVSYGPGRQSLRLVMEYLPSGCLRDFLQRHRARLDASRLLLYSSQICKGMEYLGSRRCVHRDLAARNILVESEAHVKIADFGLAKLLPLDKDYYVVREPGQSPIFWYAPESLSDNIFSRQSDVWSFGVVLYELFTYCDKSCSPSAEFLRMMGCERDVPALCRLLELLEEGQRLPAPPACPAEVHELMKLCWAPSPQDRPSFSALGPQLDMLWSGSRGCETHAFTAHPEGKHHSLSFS

SMILES	JAK 1 (pKi) (JAK1)	solubility at 4 h (physchem; [2]) [µg/mL]	solubility at 4 h (physchem; [3]) [µg/mL]	solubility at 4 h (physchem; [4]) [µg/mL]	solubility at 4 h (physchem; [5]) [µg/mL]	IC50 [1] [nM]	Ki (JAK3) [nM]	Cacoverap Kp 10^−6 cm/sec (Caco-2 cell monolayer; A→B in the presence of 25 μM verapamil (P-gp inhibitor))	Caco Kp 10^−6 cm/sec (Caco-2 cell monolayer; apical to basal (A→B))
COC(=O)N1[C@@H]2CCC[C@H]1C[C@H](N(C)c1nc(Nc3cc(C)[nH]n3)cc(O[C@H]3CCOC3)n1)C2 [Compound 27]	A (A represents a pKi value ≥10 (Ki≤0.1 nM))	< 5000	< 5000	< 5000	< 5000	10 to 31.6	0.1 to 1		
Cc1cc(Nc2cc(OC3COC3)nc(N(C)[C@@H]3C[C@H]4CCC[C@@H](C3)N4CC(=O)N3CCCC3)n2)n[nH]1 [Compound 38]	A (A represents a pKi value ≥10 (Ki≤0.1 nM))	< 5000	< 5000	< 5000	< 5000	≤ 10	0.1 to 1		
COCCC(=O)N1[C@@H]2CCC[C@H]1C[C@H](N(C)c1nc(Nc3cc(C)[nH]n3)cc(O[C@H]3CCOC3)n1)C2 [Compound 29]	A (A represents a pKi value ≥10 (Ki≤0.1 nM))	< 5000	> 10000	5000 to 10000 (≈ 10 to 20 mM)	> 10000	≤ 10	0.1 to 1		
Cc1cc(Nc2cc(O[C@H]3CCOC3)nc(N(C)[C@@H]3C[C@H]4CCC[C@@H](C3)N4C(=O)CC3CC3)n2)n[nH]1 [Compound 30]	A (A represents a pKi value ≥10 (Ki≤0.1 nM))	< 5000	< 5000	< 5000	< 5000	≤ 10	0.1 to 1		
CCS(=O)(=O)N1[C@@H]2CCC[C@H]1C[C@H](N(C)c1nc(Nc3cc(C)[nH]n3)cc(C3CCOCC3)n1)C2 [Compound 1, N^2-((1R,3s,5S)-9-(ethylsulfonyl)-9-azabicyclo[3.3.1]nonan-3-yl)-N^2-methyl-N^4-(5-methyl-1H-pyrazol-3-yl)-6-(tetrahydro-2H-pyran-4-yl)pyrimidine-2,4-diamine]	A (A represents a pKi value ≥10 (Ki≤0.1 nM))	< 5000	> 10000	> 10000	> 10000	≤ 10	0.1 to 1	A (A represents a value above 35×10^−6 cm/sec)	A (A represents a value above 30×10^−6 cm/sec)
CCNC(=O)CN1[C@@H]2CCC[C@H]1C[C@H](N(C)c1nc(Nc3cc(C)[nH]n3)cc(OC3COC3)n1)C2 [Compound 37]	A (A represents a pKi value ≥10 (Ki≤0.1 nM))	< 5000	< 5000	< 5000	< 5000	≤ 10	0.1 to 1		
CCC(=O)N1[C@@H]2CCC[C@H]1C[C@H](N(C)c1nc(Nc3cc(C)[nH]n3)cc(O[C@H]3CCOC3)n1)C2 [Compound 28]	A (A represents a pKi value ≥10 (Ki≤0.1 nM))	< 5000	5000 to 10000 (≈ 10.6 to 21.3 mM)	5000 to 10000 (≈ 10.6 to 21.3 mM)	> 10000	≤ 10	0.1 to 1		
Cc1cc(Nc2cc(O[C@@H]3CCOC3)nc(N(C)[C@@H]3C[C@H]4CCC[C@@H](C3)N4C(=O)CC3CC3)n2)n[nH]1 [Compound 26]	A (A represents a pKi value ≥10 (Ki≤0.1 nM))	< 5000	< 5000	< 5000	< 5000	≤ 10	0.1 to 1		
CCOC(=O)N1[C@@H]2CCC[C@H]1C[C@H](N(C)c1nc(Nc3cc(C)[nH]n3)cc(O[C@@H]3CCOC3)n1)C2 [Compound 24]	A (A represents a pKi value ≥10 (Ki≤0.1 nM))	< 5000	< 5000	< 5000	< 5000	10 to 31.6	0.1 to 1		
Cc1cc(Nc2cc(O[C@@H]3CCOC3)nc(N(C)[C@@H]3C[C@H]4CCC[C@@H](C3)N4CC(=O)N3CCCC3)n2)n[nH]1 [Compound 19]	A (A represents a pKi value ≥10 (Ki≤0.1 nM))	< 5000	< 5000	< 5000	< 5000	≤ 10	0.1 to 1		

— patent US11439641B2, “Pyrimidine JAK inhibitors for the treatment of skin diseases” (THERAVANCE BIOPHARMA R&D IP, LLC, priority 2019, dated 2022)
